# Data as given in patent US5110976A, “Insecticidal composition comprising more than one active ingredient” (priority 1985, dated 1992).
# Entries after “also recorded” stand apart in the source; their conditions may differ.
# Key:
# Musca domestica [1] = assay: Filter paper disc contact test (Table 11); assay type: in vivo, house fly (Musca domestica); conditions: Musca domestica, 24 h
# Outline: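 Stereoisomers in 1:2 oil/acetone were applied to 9 cm filter paper discs, the acetone evaporated, and discs placed in Petri dishes with 15 flies each, three replicates per dose. Mortality was scored at 24 h and corrected by Abbott's formula.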
# Tribolium confusum [2] = assay: Contact test on Tribolium confusum (Table 12); assay type: in vivo
# Outline: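 Compound in 1:2 oil/acetone impregnated onto 9 cm filter paper discs; after acetone evaporation, 15 insects per Petri dish exposed by contact, three replicates per dose. Mortality read at 24 hours and corrected by Abbott's formula.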
# Tribolium confusum [3] = assay: Contact test, mixtures of Ia and Ib of various ratio (Table 13); assay type: in vivo, flour beetle (Tribolium confusum); conditions: Tribolium confusum, 24 h
# Description: (§1) The active ingredient is dissolved in a 1:2 mixture of oil and acetone; filter paper discs (Whatman No. 1, diameter 9 cm) are impregnated with the solutions of the corresponding stereoisomers and enantiomer-pairs, respectively. The acetone is allowed to evaporate, whereupon the insects are exposed to filter papers discs placed in Petri-dishes. Three parallels are used on each dose and 15 insects are placed into each Petri-dish. The percental mortality is determined after 24 hours. The corrected percent mortality is calculated by means of the Abbot Formula.
# In Table 13 the insecticidal effect of mixtures of enantiomer-pairs Ia and Ib of various ratio is shown on flour beetle (Tribolium confusum). The test method is that disclosed in Example 43.
# Colorado potato beetle = assay: Topical test on Colorado potato beetle (Table 14); assay type: in vivo, Colorado potato beetle (Leptinotersa decemlineata), imago
# Description: In Table 14 the activity on Colorado potato beetle is shown.
# The test materials are dissolved in 2-ethoxyethanol (Cellosolve). One 0.3 μl drop of the solution is applied to the abdominal sterna of the imago. The treatment is carried out by using 2 parallels and 10 insects for each dose. […]
# Acanthoscelides obtectus = assay: Comparative contact test (Table 15); assay type: in vivo, bean weevil (Acanthoscelides obtectus), imago; conditions: Acanthoscelides obtectus, 24 h
# Description: as §1
# (§2) The comparative test of Ia, Ib and a 40:60 mixture of Ia:Ib is carried out on bean weevil (Acanthoscelides obtectus), flour-beetle, (Tribolium confusum), house fly (Musca domestica) and sheep maggot fly (Lucillia sericata). The test method described is Example 41.
# tribolium confusum [4] = assay: Comparative contact test (Table 15); assay type: in vivo, flour-beetle (Tribolium confusum), imago; conditions: 24 h
# Description: as §1, §2
# Musca domestica [5] = assay: Comparative contact test (Table 15); assay type: in vivo, house fly (Musca domestica), imago; conditions: 24 h
# Description: as §1, §2
# Lucillia sericata = assay: Comparative contact test (Table 15); assay type: in vivo, sheep maggot fly (Lucillia sericata), imago; parameters: key: % mortality after 24 h, Abbott-corrected; conditions: 1440 min
# Description: as §1, §2
# T. confusum = assay: Activity as function of time, toxic symptoms (Table 16); assay type: in vivo, flour beetle (T. confusum), imagos
# Outline: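 T. confusum imagos exposed in Petri dishes to filter-paper discs impregnated with isomer solutions in 1:2 oil/acetone, acetone evaporated; 3 replicates of 15 insects per dose. Insects lying on their backs counted at successive time points, expressed as percent.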
# Hyphantria cunea = assay: Topical test on fall webworm (Table 18); assay type: in vivo, fall wetworm (Hyphantria cunea), L7-L8 larvae; conditions: Hyphantria cunea, topical, 24 h
# Description: The active ingredients are dissolved in 2-ethoxy-ethanol and the solutions are applied in the form of 0.2 μl droplets onto the back of fall wetworm (Hyphantria cunea) of L7 -L8 larvae stage. The treated worms are placed on strawberry leaves in Petri-dishes. The test is carried out by using […], 2 parallels and 10 insects for each dose. The killed worms are counted after 24 hours and the percental mortality rate is calculated.
# Tetranychus urticae = assay: Potter Tower spray on mite-infested leaves (Table 19); assay type: in vivo, mites (Tetranychus urticae); conditions: Tetranychus urticae, 24 h, mortality after 24 hours; read-out: approx. LD50
# Description: Leaves already infested with mites (Tetranychus urticae) were sprayed under Potter Tower. Mortality after 24 hours on the treated leaves was compared with the control.
# [6] = Acute toxicity on rats and selectivity index; conditions: rat, in vivo
# Source text: The said selectivity index of the enantiomer-pair Ia amounts to 50/0.45=111.
# In addition to the synergistic effect the composition of the present invention has a number of further advantages too and for this reason it is an outstanding product. It is very important that the compositions of the present invention are less toxical towards mammals than the hitherto known compositions of similar efficiency. […] The said selectivity index of Ia amounts to 50/0.45=111.
compound,measurement,setting,value
CC1(C)[C@H](C(=O)O[C@H](C#N)c2cccc(Oc3ccccc3)c2)[C@@H]1C=C(Cl)Cl (relative stereo) [Ia],mortality at 40 µg/disc,Musca domestica [1]; 0.04 mg/disc,44%
same,mortality at 110 µg/disc,Musca domestica [1]; 0.11 mg/disc,84%
same,mortality at 330 µg/disc,Musca domestica [1]; 0.33 mg/disc,100%
same,mortality at 1000 µg/disc,Musca domestica [1]; 1.00 mg/disc,100%
same,mortality at 3000 µg/disc,Musca domestica [1]; 3.00 mg/disc,100%
same,mortality at 330 µg/disc,"Tribolium confusum [2]; Tribolium confusum, 24 h, 0.33 mg/disc",65%
same,mortality at 1000 µg/disc,"Tribolium confusum [2]; Tribolium confusum, 24 h, 1.00 mg/disc",94%
same,mortality at 3000 µg/disc,"Tribolium confusum [2]; Tribolium confusum, 24 h, 3.00 mg/disc",100%
same,synergism between the members of the enantiomer-pair,Tribolium confusum [2]; in vivo,does not take place; also recorded: no similar synergism takes place
same,mortality at 60 µg/disc,Tribolium confusum [3]; 0.06 mg/disc,14%
same,mortality at 250 µg/disc,Tribolium confusum [3]; 0.25 mg/disc,54%
same,mortality at 20 µg/disc,Tribolium confusum [3]; 0.02 mg/disc,0%
same,mortality at 1000 µg/disc,Tribolium confusum [3]; 1.00 mg/disc,100%
same,mortality at 0.05 µg/beetle,"Colorado potato beetle; Leptinotarsa decemlineata, topical, read-out: 24 hours' mortality %, 0.05 μg/beetle",50%
same,mortality at 0.1 µg/beetle,"Colorado potato beetle; Leptinotarsa decemlineata, topical, read-out: 24 hours' mortality %, 0.10 μg/beetle",55%
same,mortality at 0.2 µg/beetle,"Colorado potato beetle; Leptinotarsa decemlineata, topical, read-out: 24 hours' mortality %, 0.20 μg/beetle",75%
same,mortality at 0.4 µg/beetle,"Colorado potato beetle; Leptinotarsa decemlineata, topical, read-out: 24 hours' mortality %, 0.40 μg/beetle",80%
same,comparative activity,Colorado potato beetle; imago of Colorado potato beetle,more active than Ib
same,mortality at 20 µg/disc,Acanthoscelides obtectus; 0.02 mg/disc,10%
same,mortality at 70 µg/disc,Acanthoscelides obtectus; 0.07 mg/disc,37%
same,mortality at 220 µg/disc,Acanthoscelides obtectus; 0.22 mg/disc,63%
same,mortality at 670 µg/disc,Acanthoscelides obtectus; 0.67 mg/disc,95%
same,mortality at 2000 µg/disc,Acanthoscelides obtectus; 2.0 mg/disc,100%
same,mortality at 6000 µg/disc,Acanthoscelides obtectus; 6.0 mg/disc,100%
same,mortality at 20 µg/disc,tribolium confusum [4]; 0.02 mg/disc,0%
same,mortality at 70 µg/disc,tribolium confusum [4]; 0.07 mg/disc,18%
same,mortality at 220 µg/disc,tribolium confusum [4]; 0.22 mg/disc,51%
same,mortality at 670 µg/disc,tribolium confusum [4]; 0.67 mg/disc,100%
same,mortality at 2000 µg/disc,tribolium confusum [4]; 2.0 mg/disc,100%
same,mortality at 6000 µg/disc,tribolium confusum [4]; 6.0 mg/disc,100%
same,mortality at 20 µg/disc,Musca domestica [5]; 0.02 mg/disc,36%
same,mortality at 70 µg/disc,Musca domestica [5]; 0.07 mg/disc,63%
same,mortality at 220 µg/disc,Musca domestica [5]; 0.22 mg/disc,88%
same,mortality at 670 µg/disc,Musca domestica [5]; 0.67 mg/disc,100%
same,mortality at 2000 µg/disc,Musca domestica [5]; 2.0 mg/disc,100%
same,mortality at 6000 µg/disc,Musca domestica [5]; 6.0 mg/disc,100%
same,mortality,Lucillia sericata; 0.02 mg/disc,0
same,mortality,Lucillia sericata; 0.07 mg/disc,30
same,mortality,Lucillia sericata; 0.22 mg/disc,29
same,mortality,Lucillia sericata; 0.67 mg/disc,57
same,mortality,Lucillia sericata; 2.0 mg/disc,60
same,mortality,Lucillia sericata; 6.0 mg/disc,65
same,% of insects showing toxic symptoms,T. confusum; 30 minutes,0%
same,% of insects showing toxic symptoms,"T. confusum; 30 minutes, 0.33 mg/disc",0%
same,% of insects showing toxic symptoms,"T. confusum; 30 minutes, 1.00 mg/disc",0%
same,% of insects showing toxic symptoms,"T. confusum; 30 minutes, 3.00 mg/disc",33%
same,% of insects showing toxic symptoms,T. confusum; 60 minutes,0%
same,% of insects showing toxic symptoms,"T. confusum; 60 minutes, 0.33 mg/disc",0%
same,% of insects showing toxic symptoms,"T. confusum; 60 minutes, 1.00 mg/disc",16%
same,% of insects showing toxic symptoms,"T. confusum; 60 minutes, 3.00 mg/disc",88%
same,% of insects showing toxic symptoms,T. confusum; 120 minutes,0%
same,% of insects showing toxic symptoms,"T. confusum; 120 minutes, 0.33 mg/disc",14%
same,% of insects showing toxic symptoms,"T. confusum; 120 minutes, 1.00 mg/disc",66%
same,% of insects showing toxic symptoms,"T. confusum; 120 minutes, 3.00 mg/disc",100%
same,% of insects showing toxic symptoms,T. confusum; 180 minutes,10%
same,% of insects showing toxic symptoms,"T. confusum; 180 minutes, 0.33 mg/disc",49%
same,% of insects showing toxic symptoms,"T. confusum; 180 minutes, 1.00 mg/disc",100%
same,% of insects showing toxic symptoms,"T. confusum; 180 minutes, 3.00 mg/disc",100%
same,mortality at 0.023 µg/disc,Hyphantria cunea; 0.023 (μg/disc),40%
same,mortality at 0.047 µg/disc,Hyphantria cunea; 0.047 (μg/disc),60%
same,mortality at 0.094 µg/disc,Hyphantria cunea; 0.094 (μg/disc),65%
same,mortality at 0.188 µg/disc,Hyphantria cunea; 0.188 (μg/disc),80%
same,mortality at 0.375 µg/disc,Hyphantria cunea; 0.375 (μg/disc),90%
same,LC50,Tetranychus urticae,~0.056 µg/mL
same,LD50,"[6]; po, rats, p.o., read-out: approximate LD50 toxicity",~50 mg/kg
same,selectivity ratio,[6]; quotient of approximate LD50 values on rats and house fly,111
